# Columns and labels:
# Assay in all cases: In vitro antibacterial evaluation: minimum inhibitory concentration (MIC), broth dilution method
# Format in all cases: cell-based
# Conditions in all cases: 18 hours at 35° C.
# Staphylococcus sp. = test system: Staphylococcus sp.
# Summary of the method: (§1)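 Following NCCLS approved standard M7-A2, compounds are serially diluted from 64 to 0.06 μg/mL in Muller-Hinton II […] and inoculated at 5×10^5 CFU/mL; the MIC is the minimum concentration at which growth is inhibited.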
# Streptococcus sp. = test system: Streptococcus sp.
# Summary of the method: as §1
# Enterococcus sp. = test system: Enterococcus sp.
# Summary of the method: as §1
# Escherichia coli = test system: Escherichia coli
# Summary of the method: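 Inoculum: 5×10^5 CFU/mL. Range: 64-0.06 μg/mL. Medium: Muller-Hinton II […]; NCCLS M7-A2 broth dilution. Endpoint: lowest concentration inhibiting growth. Strains include methicillin-, penicillin- and/or vancomycin-resistant clinical isolates.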
# [1] = Streptococcus agalactiae (GC 4564)
# [2] = Streptococcus pneumoniae (ATCC 6301)
# [3] = Streptococcus pneumoniae (GC 1894)
# [4] = Streptococcus pneumoniae (GC 4565)
# [5] = Streptococcus pyogenes (GC 4563)
# [6] = broth dilution, inoculum 5×10^5 CFU/mL
# [7] = Enterococcus faecalis (GC 2242)
# [8] = Enterococcus faecalis (GC 2691)
# [9] = Enterococcus faecalis (GC 3059)
compound,measurement,setting,value
"CC(c1ccccc1)C1NC(=O)CNC(=O)C(CO)NC(=O)C(C(O)C2CNC(=N)N2C2OC(CO)C(O)C(O)C2O)NC(=O)C(C(O)C2CNC(=N)N2)NC(=O)C(Cc2ccc(OC3OC(CO)C(OC4OC(COCC=Cc5ccccc5)C(O)C(O)C4O)C(O)C3O)cc2)NC1=O (stereo not drawn) [Example 242, Cyclo[glycyl-β-methylphenylalanyl-O-[4-O-[6-O-(3-phenylprop-2-en-1-yl)hexopyranosyl]-hexopyranosyl]tyrosyl-3-(2-iminoimidazolidin-4-yl)seryl-3-(3-hexopyranosyl-2-iminoimidazolidin-4-yl)serylseryl]]",MIC Coagulase Negative Staphylococcus (GC 4547),Staphylococcus sp.,8 µg/mL
same,MIC Coagulase Negative Staphylococcus (GC 4548),Staphylococcus sp.,4 µg/mL
same,MIC Coagulase Negative Staphylococcus (GC 4549),Staphylococcus sp.,4 µg/mL
same,MIC Coagulase Negative Staphylococcus (GC 4551),Staphylococcus sp.,16 µg/mL
same,MIC Coagulase Negative Staphylococcus (GC 6257),Staphylococcus sp.,2 µg/mL
same,MIC Staphylococcus aureus (ATCC 29213),Staphylococcus sp.,8 µg/mL
same,MIC Staphylococcus aureus (GC 1131),Staphylococcus sp.,8 µg/mL
same,MIC Staphylococcus aureus (GC 3051),Staphylococcus sp.,8 µg/mL
same,MIC Staphylococcus aureus (GC 3053),Staphylococcus sp.,8 µg/mL
same,MIC Staphylococcus aureus (GC 4541),Staphylococcus sp.,4 µg/mL
same,MIC Staphylococcus aureus (GC 4542),Staphylococcus sp.,4 µg/mL
same,MIC Staphylococcus aureus (GC 4544),Staphylococcus sp.,8 µg/mL
same,MIC Staphylococcus aureus (GC 4545),Staphylococcus sp.,4 µg/mL
same,MIC Staphylococcus aureus-SMITH (GC 4543),Staphylococcus sp.,8 µg/mL
same,MIC Staphylococcus haemolyticus (GC 4546),Staphylococcus sp.,4 µg/mL
same,MIC Streptococcus agalactiae (GC 4564),Streptococcus sp.; [1],2 µg/mL
same,MIC Streptococcus pneumoniae (ATCC 6301),Streptococcus sp.; [2],1 µg/mL
same,MIC Streptococcus pneumoniae (GC 1894),Streptococcus sp.; [3],0.5 µg/mL
same,MIC Streptococcus pneumoniae (GC 4565),Streptococcus sp.; [4],0.5 µg/mL
same,MIC Streptococcus pyogenes (GC 4563),Streptococcus sp.; [5],2 µg/mL
same,MIC Streptococcus agalactiae (GC 4564),Streptococcus sp.; [6],2 µg/mL
same,MIC Streptococcus pneumoniae (ATCC 6301),Streptococcus sp.; [6],1 µg/mL
same,MIC Streptococcus pneumoniae (GC 1894),Streptococcus sp.; [6],0.5 µg/mL
same,MIC Streptococcus pneumoniae (GC 4565),Streptococcus sp.; [6],0.5 µg/mL
same,MIC Streptococcus pyogenes (GC 4563),Streptococcus sp.; [6],2 µg/mL
same,MIC Enterococcus avium (GC 4558),Enterococcus sp.,16 µg/mL
same,MIC Enterococcus faecalis (ATCC 29212),Enterococcus sp.,16 µg/mL
same,MIC Enterococcus faecalis (GC 2242),Enterococcus sp.; [7],16 µg/mL
same,MIC Enterococcus faecalis (GC 2691),Enterococcus sp.; [8],16 µg/mL
same,MIC Enterococcus faecalis (GC 3059),Enterococcus sp.; [9],16 µg/mL
same,MIC Enterococcus faecalis (GC 4552),Enterococcus sp.,16 µg/mL
same,MIC Enterococcus faecalis (GC 4553),Enterococcus sp.,16 µg/mL
same,MIC Enterococcus faecalis (GC 4554),Enterococcus sp.,16 µg/mL
same,MIC Enterococcus faecalis (GC 6189),Enterococcus sp.,16 µg/mL
same,MIC Enterococcus faecium (GC 2243),Enterococcus sp.,16 µg/mL
same,MIC Enterococcus faecium (GC 4556),Enterococcus sp.,16 µg/mL
same,MIC Enterococcus faecium (GC 4557),Enterococcus sp.,8 µg/mL
same,MIC Enterococcus faecalis (GC 2242),Enterococcus sp.; [6],16 µg/mL
same,MIC Enterococcus faecalis (GC 2691),Enterococcus sp.; [6],16 µg/mL
same,MIC Enterococcus faecalis (GC 3059),Enterococcus sp.; [6],16 µg/mL
same,MIC Escherichia coli (ATCC 25922),Escherichia coli,>64 µg/mL
same,MIC Escherichia coli (GC 4559),Escherichia coli,>64 µg/mL
same,MIC Escherichia coli (GC 4560),Escherichia coli,2 µg/mL
CC(c1ccccc1)C1NC(=O)CNC(=O)C(CO)NC(=O)C(C(O)C2CNC(=N)N2C2OC(CO)C(O)C(O)C2O)NC(=O)C(C(O)C2CNC(=N)N2)NC(=O)C(Cc2ccc(OC3OC(CO)C(OC4OC(COCC=Cc5ccc(N(C)C)cc5)C(O)C(O)C4O)C(O)C3O)cc2)NC1=O (stereo not drawn) [Example 243],MIC Coagulase Negative Staphylococcus (GC 4547),Staphylococcus sp.,64 µg/mL
same,MIC Coagulase Negative Staphylococcus (GC 4548),Staphylococcus sp.,32 µg/mL
same,MIC Coagulase Negative Staphylococcus (GC 4549),Staphylococcus sp.,32 µg/mL
same,MIC Coagulase Negative Staphylococcus (GC 4551),Staphylococcus sp.,64 µg/mL
same,MIC Coagulase Negative Staphylococcus (GC 6257),Staphylococcus sp.,32 µg/mL
same,MIC Staphylococcus aureus (ATCC 29213),Staphylococcus sp.,64 µg/mL
same,MIC Staphylococcus aureus (GC 1131),Staphylococcus sp.,64 µg/mL
same,MIC Staphylococcus aureus (GC 3051),Staphylococcus sp.,64 µg/mL
same,MIC Staphylococcus aureus (GC 3053),Staphylococcus sp.,64 µg/mL
same,MIC Staphylococcus aureus (GC 4541),Staphylococcus sp.,64 µg/mL
same,MIC Staphylococcus aureus (GC 4542),Staphylococcus sp.,64 µg/mL
same,MIC Staphylococcus aureus (GC 4544),Staphylococcus sp.,64 µg/mL
same,MIC Staphylococcus aureus (GC 4545),Staphylococcus sp.,64 µg/mL
same,MIC Staphylococcus aureus-SMITH (GC 4543),Staphylococcus sp.,64 µg/mL
same,MIC Staphylococcus haemolyticus (GC 4546),Staphylococcus sp.,64 µg/mL
same,MIC Streptococcus agalactiae (GC 4564),Streptococcus sp.; [1],32 µg/mL
same,MIC Streptococcus pneumoniae (ATCC 6301),Streptococcus sp.; [2],32 µg/mL
same,MIC Streptococcus pneumoniae (GC 1894),Streptococcus sp.; [3],8 µg/mL
same,MIC Streptococcus pneumoniae (GC 4565),Streptococcus sp.; [4],16 µg/mL
same,MIC Streptococcus pyogenes (GC 4563),Streptococcus sp.; [5],32 µg/mL
same,MIC Streptococcus agalactiae (GC 4564),Streptococcus sp.; [6],32 µg/mL
same,MIC Streptococcus pneumoniae (ATCC 6301),Streptococcus sp.; [6],32 µg/mL
same,MIC Streptococcus pneumoniae (GC 1894),Streptococcus sp.; [6],8 µg/mL
same,MIC Streptococcus pneumoniae (GC 4565),Streptococcus sp.; [6],16 µg/mL
same,MIC Streptococcus pyogenes (GC 4563),Streptococcus sp.; [6],32 µg/mL
same,MIC Enterococcus avium (GC 4558),Enterococcus sp.,32 µg/mL
same,MIC Enterococcus faecalis (ATCC 29212),Enterococcus sp.,>64 µg/mL
same,MIC Enterococcus faecalis (GC 2242),Enterococcus sp.; [7],64 µg/mL
same,MIC Enterococcus faecalis (GC 2691),Enterococcus sp.; [8],>64 µg/mL
same,MIC Enterococcus faecalis (GC 3059),Enterococcus sp.; [9],>64 µg/mL
same,MIC Enterococcus faecalis (GC 4552),Enterococcus sp.,>64 µg/mL
same,MIC Enterococcus faecalis (GC 4553),Enterococcus sp.,64 µg/mL
same,MIC Enterococcus faecalis (GC 4554),Enterococcus sp.,>64 µg/mL
same,MIC Enterococcus faecalis (GC 6189),Enterococcus sp.,64 µg/mL
same,MIC Enterococcus faecium (GC 2243),Enterococcus sp.,64 µg/mL
same,MIC Enterococcus faecium (GC 4556),Enterococcus sp.,>64 µg/mL
same,MIC Enterococcus faecium (GC 4557),Enterococcus sp.,32 µg/mL
same,MIC Enterococcus faecalis (GC 2242),Enterococcus sp.; [6],64 µg/mL
same,MIC Enterococcus faecalis (GC 2691),Enterococcus sp.; [6],>64 µg/mL
same,MIC Enterococcus faecalis (GC 3059),Enterococcus sp.; [6],>64 µg/mL
same,MIC Escherichia coli (ATCC 25922),Escherichia coli,>64 µg/mL
same,MIC Escherichia coli (GC 4559),Escherichia coli,>64 µg/mL
same,MIC Escherichia coli (GC 4560),Escherichia coli,64 µg/mL
CC(c1ccccc1)C1NC(=O)CNC(=O)C(CO)NC(=O)C(C(O)C2CNC(=N)N2C2OC(CO)C(O)C(O)C2O)NC(=O)C(C(O)C2CNC(=N)N2)NC(=O)C(Cc2ccc(OC3OC(CO)C(OC4OC(CO)C(OCC=Cc5ccc(N(C)C)cc5)C(O)C4O)C(O)C3O)cc2)NC1=O (stereo not drawn) [Example 243a],MIC Coagulase Negative Staphylococcus (GC 4547),Staphylococcus sp.,32 µg/mL
same,MIC Coagulase Negative Staphylococcus (GC 4548),Staphylococcus sp.,32 µg/mL
same,MIC Coagulase Negative Staphylococcus (GC 4549),Staphylococcus sp.,16 µg/mL
same,MIC Coagulase Negative Staphylococcus (GC 4551),Staphylococcus sp.,32 µg/mL
same,MIC Coagulase Negative Staphylococcus (GC 6257),Staphylococcus sp.,16 µg/mL
same,MIC Staphylococcus aureus (ATCC 29213),Staphylococcus sp.,32 µg/mL
same,MIC Staphylococcus aureus (GC 1131),Staphylococcus sp.,32 µg/mL
same,MIC Staphylococcus aureus (GC 3051),Staphylococcus sp.,32 µg/mL
same,MIC Staphylococcus aureus (GC 3053),Staphylococcus sp.,32 µg/mL
same,MIC Staphylococcus aureus (GC 4541),Staphylococcus sp.,32 µg/mL
same,MIC Staphylococcus aureus (GC 4542),Staphylococcus sp.,32 µg/mL
same,MIC Staphylococcus aureus (GC 4544),Staphylococcus sp.,32 µg/mL
same,MIC Staphylococcus aureus (GC 4545),Staphylococcus sp.,32 µg/mL
same,MIC Staphylococcus aureus-SMITH (GC 4543),Staphylococcus sp.,32 µg/mL
same,MIC Staphylococcus haemolyticus (GC 4546),Staphylococcus sp.,32 µg/mL
same,MIC Streptococcus agalactiae (GC 4564),Streptococcus sp.; [1],16 µg/mL
same,MIC Streptococcus pneumoniae (ATCC 6301),Streptococcus sp.; [2],16 µg/mL
same,MIC Streptococcus pneumoniae (GC 1894),Streptococcus sp.; [3],1 µg/mL
same,MIC Streptococcus pneumoniae (GC 4565),Streptococcus sp.; [4],2 µg/mL
same,MIC Streptococcus pyogenes (GC 4563),Streptococcus sp.; [5],8 µg/mL
same,MIC Streptococcus agalactiae (GC 4564),Streptococcus sp.; [6],16 µg/mL
same,MIC Streptococcus pneumoniae (ATCC 6301),Streptococcus sp.; [6],16 µg/mL
same,MIC Streptococcus pneumoniae (GC 1894),Streptococcus sp.; [6],1 µg/mL
same,MIC Streptococcus pneumoniae (GC 4565),Streptococcus sp.; [6],2 µg/mL
same,MIC Streptococcus pyogenes (GC 4563),Streptococcus sp.; [6],8 µg/mL
same,MIC Enterococcus avium (GC 4558),Enterococcus sp.,16 µg/mL
same,MIC Enterococcus faecalis (ATCC 29212),Enterococcus sp.,32 µg/mL
same,MIC Enterococcus faecalis (GC 2242),Enterococcus sp.; [7],32 µg/mL
same,MIC Enterococcus faecalis (GC 2691),Enterococcus sp.; [8],32 µg/mL
same,MIC Enterococcus faecalis (GC 3059),Enterococcus sp.; [9],32 µg/mL
same,MIC Enterococcus faecalis (GC 4552),Enterococcus sp.,32 µg/mL
same,MIC Enterococcus faecalis (GC 4553),Enterococcus sp.,32 µg/mL
same,MIC Enterococcus faecalis (GC 4554),Enterococcus sp.,32 µg/mL
same,MIC Enterococcus faecalis (GC 6189),Enterococcus sp.,32 µg/mL
same,MIC Enterococcus faecium (GC 2243),Enterococcus sp.,32 µg/mL
same,MIC Enterococcus faecium (GC 4556),Enterococcus sp.,32 µg/mL
same,MIC Enterococcus faecium (GC 4557),Enterococcus sp.,16 µg/mL
same,MIC Enterococcus faecalis (GC 2242),Enterococcus sp.; [6],32 µg/mL
same,MIC Enterococcus faecalis (GC 2691),Enterococcus sp.; [6],32 µg/mL
same,MIC Enterococcus faecalis (GC 3059),Enterococcus sp.; [6],32 µg/mL
same,MIC Escherichia coli (ATCC 25922),Escherichia coli,>64 µg/mL
same,MIC Escherichia coli (GC 4559),Escherichia coli,>64 µg/mL
same,MIC Escherichia coli (GC 4560),Escherichia coli,32 µg/mL

# Reference: patent US8247211B2, “Glycopeptide antibiotics” (American Cyanamid Company, priority 2001, dated 2012)
